Positions of bridges follow the written chain, without caps; N, C: chain ends. Non-standard residues stand in square brackets, D forms with d. Residues, ends and D or L forms follow the SMILES beside them. Chains are numbered I, II in the order given. 2Nal = N[C@@H](Cc1ccc2ccccc2c1)C(=O)O; Lys(iPr) = CC(C)NCCCC[C@H](N)C(=O)O
What was measured:
CXCR4 Y256A = target: T1, CXCR4 Y256A (Homo sapiens, UniProt P61073, Y256A); experiment: Competitive binding to CXCR4 mutant Y256A (12G5, CHO cells); details: TM6, class of reduction vs wild-type CXCR4, 12G5 competition, averages of at least three independent experiments
T1 construct: expressed in transfected cells
T1 sequence (P61073 whole entry Y256A): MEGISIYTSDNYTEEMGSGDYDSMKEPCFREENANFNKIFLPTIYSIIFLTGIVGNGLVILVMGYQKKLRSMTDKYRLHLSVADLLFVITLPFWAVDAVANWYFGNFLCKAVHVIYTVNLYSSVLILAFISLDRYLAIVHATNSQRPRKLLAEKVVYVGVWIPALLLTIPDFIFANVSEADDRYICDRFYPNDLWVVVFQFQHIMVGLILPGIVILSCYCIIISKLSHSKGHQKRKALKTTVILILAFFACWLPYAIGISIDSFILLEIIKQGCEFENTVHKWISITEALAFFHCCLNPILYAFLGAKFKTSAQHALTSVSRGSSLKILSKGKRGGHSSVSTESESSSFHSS
Method: (§1) Plasmid pcDNA3-CXCR4 and mutated pcDNA3-CXCR4 were extracted and transfected into CHO cells using Lipofectamine 2000 according to the manufacturer’s guidelines. The selective medium containing G418 at a concentration of 1.2 mg/ml was applied to isolate stably transfected cells. CHO cells expressing wild-type CXCR4 and mutant CXCR4 were obtained using fluorescence-activated cell sorting (FACS).
(§2) All of the CXCR4 mutants were prepared using PCR technology. Briefly, pairs of asymmetrical primers containing the desired amino acid mutations (Supplementary Tables S1 and S2), each complementary to opposite strands of the pcDNA3–CXCR4, were designed for amplification by Q5® High-Fidelity DNA polymerase and the generation of mutated constructs. The methylated pcDNA3–CXCR4 templates were digested by DpnI. The mutated pcDNA3–CXCR4 was transformed into competent E. coli TOP10 for long-term storage and amplification.
(§3) The procedure for the CXCR4 competitive binding experiments was published previously. Briefly, CXCR4 antibody 12G5 (250 ng/ml) was incubated with 5 × 10^5 cells and varying concentrations of unlabeled compounds in a final volume of 100 μl of assay buffer (PBS with 0.5% BSA and 0.05% NaN3) in 96-well plates for 40 min on ice, after being washed with assay buffer once. The cells were incubated with FITC-conjugated second antibody IgG for 30 min on ice, then washed with assay buffer three times. The fluorescence intensity was measured for excitation at 485 nm and emission at 535 nm using multimode plate reader (PerkinElmer). The IC50 values were calculated using graphpad Prism 7. Experiments were performed at least three times.

CXCR4 H203A = target: T2, CXCR4 H203A (Homo sapiens, UniProt P61073, H203A); experiment: Competitive binding to CXCR4 mutant H203A (12G5, CHO cells); details: TM5, class of reduction vs wild-type CXCR4, 12G5 competition, averages of at least three independent experiments
T2 construct: expressed in transfected cells
T2 sequence (P61073 whole entry H203A): as the sequence (P61073 whole entry Y256A) above, with H203A, A256Y counted along it
Method: as §1, §2, §3

CXCR4 D262E = target: T3, CXCR4 D262E (Homo sapiens, UniProt P61073, D262E); experiment: Competitive binding to CXCR4 mutant D262E (12G5, CHO cells); details: TM6, class of reduction vs wild-type CXCR4, 12G5 competition, averages of at least three independent experiments
T3 construct: expressed in transfected cells
T3 sequence (P61073 whole entry D262E): as the sequence (P61073 whole entry Y256A) above, with A256Y, D262E counted along it
Method: as §1, §2, §3

CXCR4 Y45A = target: T4, CXCR4 Y45A (Homo sapiens, UniProt P61073, Y45A); experiment: Competitive binding to CXCR4 mutant Y45A (12G5, CHO cells); details: TM1, class of reduction vs wild-type CXCR4, 12G5 competition, averages of at least three independent experiments
T4 construct: expressed in transfected cells
T4 sequence (P61073 whole entry Y45A): as the sequence (P61073 whole entry Y256A) above, with Y45A, A256Y counted along it
Method: as §1, §2, §3

CXCR4 W195A = target: T5, CXCR4 W195A (Homo sapiens, UniProt P61073, W195A); experiment: Competitive binding to CXCR4 mutant W195A (12G5, CHO cells); details: TM4, class of reduction vs wild-type CXCR4, 12G5 competition, averages of at least three independent experiments
T5 construct: expressed in transfected cells
T5 sequence (P61073 whole entry W195A): as the sequence (P61073 whole entry Y256A) above, with W195A, A256Y counted along it
Method: as §1, §2, §3

CXCR4 D97A = target: T6, CXCR4 D97A (Homo sapiens, UniProt P61073, D97A); experiment: Competitive binding to CXCR4 mutant D97A (12G5, CHO cells); details: TM2, class of reduction vs wild-type CXCR4, 12G5 competition, averages of at least three independent experiments
T6 construct: expressed in transfected cells
T6 sequence (P61073 whole entry D97A): as the sequence (P61073 whole entry Y256A) above, with D97A, A256Y counted along it
Method: as §1, §2, §3

CXCR4 T117A = target: T7, CXCR4 T117A (Homo sapiens, UniProt P61073, T117A); experiment: Competitive binding to CXCR4 mutant T117A (12G5, CHO cells); details: TM3, class of reduction vs wild-type CXCR4, 12G5 competition, averages of at least three independent experiments
T7 construct: expressed in transfected cells
T7 sequence (P61073 whole entry T117A): as the sequence (P61073 whole entry Y256A) above, with T117A, A256Y counted along it
Method: as §1, §2, §3

CXCR4 I284A = target: T8, CXCR4 I284A (Homo sapiens, UniProt P61073, I284A); experiment: Competitive binding to CXCR4 mutant I284A (12G5, CHO cells); details: TM7, class of reduction vs wild-type CXCR4, 12G5 competition, averages of at least three independent experiments
T8 construct: expressed in transfected cells
T8 sequence (P61073 whole entry I284A): as the sequence (P61073 whole entry Y256A) above, with A256Y, I284A counted along it
Method: as §1, §2, §3

CXCR4 V112A = target: T9, CXCR4 V112A (Homo sapiens, UniProt P61073, V112A); experiment: Competitive binding to CXCR4 mutant V112A (12G5, CHO cells); details: TM3, class of reduction vs wild-type CXCR4, 12G5 competition, averages of at least three independent experiments
T9 construct: expressed in transfected cells
T9 sequence (P61073 whole entry V112A): as the sequence (P61073 whole entry Y256A) above, with V112A, A256Y counted along it
Method: as §1, §2, §3

CXCR4 Y255A = target: T10, CXCR4 Y255A (Homo sapiens, UniProt P61073, Y255A); experiment: Competitive binding to CXCR4 mutant Y255A (12G5, CHO cells); details: TM6, class of reduction vs wild-type CXCR4, 12G5 competition, averages of at least three independent experiments
T10 construct: expressed in transfected cells
T10 sequence (P61073 whole entry Y255A): as the sequence (P61073 whole entry Y256A) above, with Y255A, A256Y counted along it
Method: as §1, §2, §3

CXCR4 W161A = target: T11, CXCR4 W161A (Homo sapiens, UniProt P61073, W161A); experiment: Competitive binding to CXCR4 mutant W161A (12G5, CHO cells); details: TM4, class of reduction vs wild-type CXCR4, 12G5 competition, averages of at least three independent experiments
T11 construct: expressed in transfected cells
T11 sequence (P61073 whole entry W161A): as the sequence (P61073 whole entry Y256A) above, with W161A, A256Y counted along it
Method: as §1, §2, §3

CXCR4 [1] = target: T12, CXCR4 (Homo sapiens, UniProt P61073); experiment: SDF-1α-induced calcium mobilization assay in SupT1 cells (Fluo-4); assay type: cell-based; set-up: host or cells: SupT1 cells; details: 50 nM SDF-1α
T12 sequence (P61073 whole entry): as the sequence (P61073 whole entry Y256A) above, with A256Y counted along it
Method: (§4) Figure 2 The inhibitory effect of the antagonists on SDF-1α-induced cell chemotaxis and calcium mobilization in SupT1 cells The antagonists and concentrations used were labeled in each lane. (A) The inhibition of cell migration by the noted antagonists. SupT1 cells pre-treated with or without CXCR4 antagonists were seeded in the upper well and cell migrated by 2 nM SDF-1α. Migrated cells without SDF-1α were used as a negative (0%) and migrated cell induced by SDF-1α as a positive control (100%). […] SupT1 cells were treated with or without CXCR4 antagonists and activated by 50 nM SDF-1α. To directly compare the inhibitory effect of the antagonists on calcium mobilization, the vehicle background and baseline were removed using GraphPad and Origin. The data were averages of at least three independent experiments.
SupT1 cells were collected and washed using HHBS buffer (Hanks’ Balanced Salt solution supplemented with 20 mM HEPES) and incubated with 1 mM probenecid (Energy Chemical, China) and 4 μM Fluo-4 (AAT bioquest, U.S.A.) for 37°C for 30 min with vortex every 5 min. After being washed with HHBS, cells were suspended in PBS at 2 × 10^6/ml and seeded 200 μl cells and various concentrations of compounds per well in 96-well plate. Following 50 nM SDF-1α was added to each well, the fluorescence intensity was measured (Ex/Em = 496/516 nm) using EnSpire® multimode plate reader (PerkinElmer, U.S.A.).

CXCR4 D193A = target: T13, CXCR4 D193A (Homo sapiens, UniProt P61073, D193A); experiment: Competitive binding to CXCR4 mutant D193A (12G5, CHO cells); details: TM4, class of reduction vs wild-type CXCR4, 12G5 competition, averages of at least three independent experiments
T13 construct: expressed in transfected cells
T13 sequence (P61073 whole entry D193A): as the sequence (P61073 whole entry Y256A) above, with D193A, A256Y counted along it
Method: as §1, §2, §3

CXCR4 [2] = target: T12, CXCR4; experiment: SDF-1α-induced cell migration assay in SupT1 cells (transwell); assay type: cell-based; set-up: host or cells: SupT1 cells; details: 2 nM SDF-1α, 30 min pre-incubation, 3 h migration
Method: as §4
SupT1 cells (2 × 10^6 cells per well in 75 μl) were collected and washed using assay buffer (RPMI 1640 supplemented with 0.5% BSA) and incubated with various concentrations of tested compounds for 30 min in the upper well of the transwell-96 well plates with 5.0 µm pore polycarbonate membrane insert (Corning, U.S.A.). Then, 200 μl assay buffer containing 2 nM SDF-1α was added to the lower well and cells were allowed to migrate for 3 h. Migrated cells were measured using celltiter-96 reagent.

CXCR4 W252A = target: T14, CXCR4 W252A (Homo sapiens, UniProt P61073, W252A); experiment: Competitive binding to CXCR4 mutant W252A (12G5, CHO cells); details: TM6, class of reduction vs wild-type CXCR4, 12G5 competition, averages of at least three independent experiments
T14 construct: expressed in transfected cells
T14 sequence (P61073 whole entry W252A): as the sequence (P61073 whole entry Y256A) above, with W252A, A256Y counted along it
Method: as §1, §2, §3

Row | SMILES | Competitive receptor binding activity, CXCR4 Y256A (CXCR4 Y256A) | Competitive receptor binding activity, CXCR4 H203A (CXCR4 H203A) | Competitive receptor binding activity, CXCR4 D262E (CXCR4 D262E) | Competitive receptor binding activity, CXCR4 Y45A (CXCR4 Y45A) | Competitive receptor binding activity, CXCR4 W195A (CXCR4 W195A) | Competitive receptor binding activity, CXCR4 D97A (CXCR4 D97A) | Competitive receptor binding activity, CXCR4 T117A (CXCR4 T117A) | Competitive receptor binding activity, CXCR4 I284A (CXCR4 I284A) | Competitive receptor binding activity, CXCR4 V112A (CXCR4 V112A) | Competitive receptor binding activity, CXCR4 Y255A (CXCR4 Y255A) | Competitive receptor binding activity, CXCR4 W161A (CXCR4 W161A) | inhibition at 1 µM (CXCR4 [1]; SUP-T1, at 1 μM) [%] | Competitive receptor binding activity, CXCR4 D193A (CXCR4 D193A) | inhibition at 4 µM (CXCR4 [2]; SUP-T1, at 4 μM) [%] | Competitive receptor binding activity, CXCR4 W252A (CXCR4 W252A) | Inhibition of calcium mobilization (in words) (CXCR4 [1]; single concentration (Figure 2B)) | inhibition at 0.4 µM (CXCR4 [2]; SUP-T1, at 400 nM) [%] | inhibition at 0.005 µM (CXCR4 [1]; SUP-T1, at 5 nM) [%] | inhibition at 0.2 µM (CXCR4 [2]; SUP-T1, at 200 nM) [%]
1 | CC(C)C[C@@H](N)C(=O)NCC(=O)N[C@H](C)C(=O)N[C@H](CO)C(=O)N[C@H](Cc1c[nH]c2ccccc12)C(=O)N[C@H](Cc1c[nH]cn1)C(=O)N[C@H](CCCNC(=N)N)C(=O)N1CCC[C@@H]1C(=O)N[C@H](CC(=O)O)C(=O)N[C@H](CCCCN)C(=O)NCCCC[C@@H](NC(=O)[C@H]1CCCN1C(=O)[C@@H](CC(C)C)NC(=O)[C@H]1CCCN1C(=O)[C@@H](CCCNC(=N)N)NC(=O)[C@@H](CCCCN)NC(=O)[C@@H](CCC(N)=O)NC(=O)[C@@H](Cc1ccc(O)cc1)NC(=O)CNC(=O)[C@@H](CC(C)C)NC(=O)[C@@H](CS)NC(=O)[C@@H](CS)NC(=O)[C@@H](CCCCN)NC(=O)[C@@H](CC(=O)O)NC(=O)[C@H]1CCCN1C(=O)[C@@H](CCCNC(=N)N)NC(=O)[C@@H](Cc1c[nH]cn1)NC(=O)[C@@H](Cc1c[nH]c2ccccc12)NC(=O)[C@@H](CO)NC(=O)[C@@H](C)NC(=O)CNC(=O)[C@H](N)CC(C)C)C(=O)O [HC4319] (I: H-[dL]G[dA][dS][dW][dH][dR][dP][dD][dK][dC][dC][dL]G[dY][dQ][dK][dR][dP][dL][dP][dK]-OH / II: H-[dL]G[dA][dS][dW][dH][dR][dP][dD][dK]; amide I:22-II:C; N-terminus and C-terminus assumed) | +++ | +++ | ++ (10–29% reduction compared with wild-type CXCR4) | + (30–60% reduction compared with wild-type CXCR4) | ++ (10–29% reduction compared with wild-type CXCR4) | ++ (10–29% reduction compared with wild-type CXCR4) | +++ | +++ | +++ | ++ (10–29% reduction compared with wild-type CXCR4) | +++ | 77 | ++ (10–29% reduction compared with wild-type CXCR4) | 56 | +++ | – | – | – | –
2 | CC(C)NCCCC[C@H](NC(=O)[C@H]1CCC(=O)N[C@@H](Cc2ccccc2)C(=O)N[C@@H](Cc2ccc(O)cc2)C(=O)N[C@@H](CCCCNC(C)C)C(=O)N[C@H](CCCNC(=N)N)C(=O)N[C@@H](Cc2ccc3ccccc3c2)C(=O)NCC(=O)N1)C(N)=O [LY2510924] (FY[Lys(iPr)][dR][2Nal]G[dE][Lys(iPr)]-NH2; lactam N-7 (inferred)) | ++ (10–29% reduction compared with wild-type CXCR4) | + (30–60% reduction compared with wild-type CXCR4) | ++ (10–29% reduction compared with wild-type CXCR4) | + (30–60% reduction compared with wild-type CXCR4) | ++ (10–29% reduction compared with wild-type CXCR4) | + (30–60% reduction compared with wild-type CXCR4) | + (30–60% reduction compared with wild-type CXCR4) | ++ (10–29% reduction compared with wild-type CXCR4) | ++ (10–29% reduction compared with wild-type CXCR4) | ++ (10–29% reduction compared with wild-type CXCR4) | ++ (10–29% reduction compared with wild-type CXCR4) | – | +++ | – | ++ (10–29% reduction compared with wild-type CXCR4) | significant inhibition | 76 | – | –
3 | NCCCCN(Cc1nc2ccccc2[nH]1)[C@H]1CCCc2cccnc21 [AMD11070] | +++ | +++ | +++ | ++ (10–29% reduction compared with wild-type CXCR4) | ++ (10–29% reduction compared with wild-type CXCR4) | + (30–60% reduction compared with wild-type CXCR4) | +++ | +++ | +++ | +++ | ++ (10–29% reduction compared with wild-type CXCR4) | – | +++ | – | +++ | – | – | 71 | 80
